Consider 2 molecules from US12479858B2, “Macrocyclic compounds as sting agonists and methods and uses thereof” (Lupin Limited, priority 2019, dated 2025).

Data set [1] concerns CT26 Allograft. In words: Tumor volume in CT26 allograft BALB/c mice model, intravenous administration. The data set is classed as in vivo. The following applies: i.v., indicated dose at days 1, 4, and 8. The procedure:
Effect of Compounds on Tumor Volume in CT26 Allograft BALB/c Mice Model by Intravenous (i.v.) Administration
Healthy, female BALB/c mice in the age group of 5-8 weeks issued from Research Animal Facility (RAF). These mice were housed in individually ventilated cages (IVC) in the experimental animal room and were acclimatized not less than 5 days prior to cell inoculation. All the experimental activities were carried out inside the biosafety cabinet to ensure sterility. Under aseptic conditions, Allograft tumor model was generated by inoculating BALB/c mice with 0.1 million CT26 single cell suspension (colorectal cancer model), using 1 mL disposable syringe fitted with a 26G ½″ sterile needle. Each mouse was inoculated with 100 μL of CT26 cell suspension in phosphate buffered saline (PBS) media, subcutaneously in right flank region. Mice were randomized into different groups, post cell inoculation, with approximately equal mean and equal variation (S.E.M.) of tumor volumes in various treatment groups including vehicle control group.
Tumor size was measured with Vernier caliper when the tumor became palpable. Tumor volume (T. V.) was calculated by using the formula: Tumor volume (mm^3)=(L×W^2)/2 • Where, L—Length of tumor, W—Width of tumor
Mice were selected and randomized, on the basis of tumor volume, into required no. of groups with approximately equal mean and equal variation on day 1 of treatment, post-tumor cell inoculation. All study groups were treated via intravenous route on day 1, 4 and 8 dosing schedule, through lateral tail vein at a dose volume of 5 mL/kg.
Tumor sizes were measured with Vernier caliper twice weekly and body weights of mice were recorded daily.
Percent tumor growth inhibition (% TGI) was calculated using the formula: % TGI=[1−(Tf−Ti)/(Cf−Ci)]×100 Wherein Tf and Ti are the final and initial test tumor volumes, respectively, and Cf and Ci are the final and initial control mean tumor volumes, respectively.
Percent Tumor Regression (% TR) was calculated using the formula: % TR=[(Initial T.V.−Final T.V.)/(Initial T.V.)]×100 Wherein T.V.=Tumor Volume
Body weight change (%) was calculated by using the formula: Body weight change (%)[=(Final B.Wt.)−(Initial B.Wt.)/Initial B.Wt.]×100 Wherein B.Wt.=Body weight

A short description of data set [2]: Plasma and tumor compound concentrations in CT26 tumor-bearing mice (LC-MS/MS). The data set is classed as in vivo, BALB/c mice. The note with it: 0.375 mg/kg single i.v.; for concentration at 3.5 h / concentration at 8 h / concentration at 12 h / concentration at 24 h: BALB/c, mouse, intravenous; for concentration at 3.5 h: 3.5 h (Table 4); for concentration at 8 h: 8 h (Table 4); for concentration at 12 h: 12 h (Table 4). The procedure: Pharmacokinetic and Pharmacodynamic Profiling and Estimation of Immune Cell Infiltration in Tumors Following Treatment with Compounds 2, 6, 8, 12 and 14
Serum and tumor cytokine levels and corresponding compound concentrations in mouse plasma were determined following single-dose intravenous administration in CT26 (murine colorectal carcinoma) tumor-bearing mice. Briefly, naïve BALB/c mice in the age group of 6-8 weeks were inoculated with 0.1 million CT-26 cells/animal in phosphate buffered saline (PBS), subcutaneously. […] Blood and tumor samples were harvested at various time points up to 24 h post-dose. Tumor samples were homogenized and prepared for cytokine estimation (ELISA) and compound concentration were determined by LC-MS/MS. Serum aliquots and tumor samples were snap-frozen and stored at −80° C. till further analysis. Serum and tumor samples were evaluated for Interferon beta (IFNβ), interleukin-6 (IL-6) and tumor necrosis factor alpha (TNFα) by enzyme linked immunosorbent assay (ELISA) using kits from R & D systems (Quantikine mouse IL-6 and TNFα kits) and PBL biosciences (Verikine mouse IFNβ kit).
Bioanalysis of plasma and tumor samples: Plasma and tumor concentrations of test compounds were determined by LC-MS/MS method. Tumor samples were homogenized utilizing a bead-based homogenizer. Plasma samples and tumor homogenates were extracted using protein precipitation method with organic solution containing respective internal standards. Plasma and tumor concentrations were determined against respective calibration curve. Table 3 indicates the concentration of Compound 2 in plasma and tumor at different administered doses. Table 4 indicates the concentration of Compounds 6, 8, 12, and 14 in plasma and tumor at different administered doses. Table 5 indicates cytokine levels for Compound 2 in serum and tumor at different doses. Table 6 indicates cytokine levels for Compounds 6, 8, 12 and 14 in serum and tumor at 0.375 mpk.

The mark [3] stands for this setting: tumor, 24 h (Table 4), read-out: Tumor Conc.

Counter-ions that a name gives are not always drawn. Like-named read-outs stand apart in the source and are kept apart here.

For `CCn1nc(C)cc1C(=O)Nc1nc2cc(C(N)=O)cc3c2n1C/C=C/Cn1c(NC(=O)c2cc(C)nn2CC)nc2cc(C(=O)N[C@H]4CC[C@H](c5nnn[nH]5)CC4)cc(c21)OC[C@@H](N1C2CCC1COC2)CO3` [Compound 12, (8S,E)-N4-((1R,4S)-4-(1H-tetrazol-5-yl)cyclohexyl)-8-(3-oxa-8-azabicyclo[3.2.1]octan-8-yl)-1,15-bis(1-ethyl-3-methyl-1H-pyrazole-5-carboxamido)-8,9,16,19-tetrahydro-7H-6,10-dioxa-2,14,15a,19a-tetraazacyclopentadeca[3,2,1-cd:8,9,10-c′d′]diindene-4,12-dicarboxamide sodium salt], in data set [1], the “effect on tumor volume” value was “reduces tumor volume” and the “subjects exhibiting complete tumor regression” value is 8 out of 10. Besides, in data set [2] (plasma, read-out: Plasma Conc.), the concentration at 3.5 h worked out at 440 ± 50 nM, the concentration at 8 h was 180 ± 50 nM and the concentration at 12 h came to 90 ± 20 nM. Besides, the concentration at 24 h in data set [2] (plasma, 24 h (Table 4), read-out: Plasma Conc.) turned out to be 20 nM. Also, in data set [2] (tumor, read-out: Tumor Conc.), the concentration at 3.5 h is 360 ± 130 nM, the concentration at 8 h was 190 ± 80 nM and the concentration at 12 h was determined as 300 ± 120 nM. For the same molecule, in data set [2] (setting [3]), the concentration at 24 h is 130 ± 40 nM.
Take `CCn1nc(C)cc1C(=O)Nc1nc2cc(C(N)=O)cc3c2n1C/C=C/Cn1c(NC(=O)c2cc(C)nn2CC)nc2cc(C(=O)N[C@H]4CC[C@H](C(=O)O)CC4)cc(c21)OC[C@@H](N1C2CCC1COC2)CO3` [Compound 14, (1S,4R)-4-((8S,E)-8-(3-oxa-8-azabicyclo[3.2.1]octan-8-yl)-12-carbamoyl-1,15-bis(1-ethyl-3-methyl-1H-pyrazole-5-carboxamido)-8,9,16,19-tetrahydro-7H-6,10-dioxa-2,14,15a,19a-tetraazacyclopentadeca[3,2,1-cd:8,9,10-c′d′]diindene-4-carboxamido)cyclohexane-1-carboxylic acid sodium salt]: in data set [1], the “effect on tumor volume” value is “reduces tumor volume” and the “subjects exhibiting complete tumor regression” value is given as 6 out of 9. For the same molecule, the “Plasma Conc.” value in data set [2] (24 h (Table 4)) is “BLQ”. Besides, in data set [2] (plasma, read-out: Plasma Conc.), the concentration at 3.5 h turned out to be 450 ± 70 nM, the concentration at 8 h came out at 90 ± 10 nM and the concentration at 12 h was found to be 70 ± 60 nM. In addition, in data set [2] (tumor, read-out: Tumor Conc.), the concentration at 3.5 h turned out to be 170 ± 20 nM, the concentration at 8 h was determined as 130 ± 20 nM and the concentration at 12 h was 160 ± 60 nM. Besides, in data set [2] (setting [3]), the concentration at 24 h is 180 ± 60 nM.
